According to ChEMBL document CHEMBL1201862, “PubChem BioAssay data set” (2004):
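Five compound concentrations were applied to cells in 96-well plates for 48 hours; endpoints were derived by simple linear interpolation of the resulting dose-response curve. The concentration for 50% growth inhibition is given as GI50.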 Activity calls are given as the source filed them. No stated cut-off is given here; in the data, active = GI50 up to about 1.1 µM and inactive = higher.

Assays:
Test in all cases: NCI-60 cell line screen, 48 h
NCI/ADR-RES = tested on: NCI/ADR-RES
DMS-114 = tested on: DMS-114
HL-60 = tested on: HL-60
COLO 205 = tested on: COLO 205
SW-620 = tested on: SW-620
DLD-1 = tested on: DLD-1
SNB-78 = tested on: SNB-78
UACC-62 = tested on: UACC-62
SK-MEL-2 = tested on: SK-MEL-2
NCI-H460 = tested on: NCI-H460
HCC 2998 = tested on: HCC 2998
DMS-273 = tested on: DMS-273
NCI-H522 = tested on: NCI-H522
RXF 393 = tested on: RXF 393
Malme-3M = tested on: Malme-3M
SK-MEL-28 = tested on: SK-MEL-28
A498 = tested on: A498
OVCAR-5 = tested on: OVCAR-5

Row | SMILES | GI50 (NCI/ADR-RES) | GI50 (DMS-114) | GI50 (HL-60) | GI50 (COLO 205) | GI50 (SW-620) | GI50 (DLD-1) | GI50 (SNB-78) | GI50 (UACC-62) | GI50 (SK-MEL-2) | GI50 (NCI-H460) | GI50 (HCC 2998) | GI50 (DMS-273) | GI50 (NCI-H522) | GI50 (RXF 393) | GI50 (Malme-3M) | GI50 (SK-MEL-28) | GI50 (A498) | GI50 (OVCAR-5)
1 | CN1CCN(P2(=S)Oc3ccc4ccccc4c3-c3c(ccc4ccccc34)O2)CC1 | 28.7 µM (inactive) | 29.6 µM (inactive) | 13.1 µM (inactive) | 16.5 µM (inactive) | 39 µM (inactive) | 34.6 µM (inactive) | 50.4 µM (inactive) | 34.5 µM (inactive) | 18.8 µM (inactive) | 19.5 µM (inactive) | 21 µM (inactive) | 22.4 µM (inactive) | 24.2 µM (inactive) | 25.6 µM (inactive) | 21.4 µM (inactive) | 41.1 µM (inactive) | 52.5 µM (inactive) | 54.7 µM (inactive)
2 | CC(C)=CCC/C(C)=C/CCC1(C)C=Cc2c(c3ccccc3oc2=O)O1 (configuration not stated) | 16.7 µM (inactive) | 15.8 µM (inactive) | 23.8 µM (inactive) | 19.1 µM (inactive) | 19.4 µM (inactive) | 14.7 µM (inactive) | > 56.2 µM (inactive) | 10.2 µM (inactive) | 17.4 µM (inactive) | 15.8 µM (inactive) | 17.7 µM (inactive) | 16.9 µM (inactive) | 14.7 µM (inactive) | 3.71 µM (inactive) | 27.6 µM (inactive) | 16.1 µM (inactive) | 13.4 µM (inactive) | 18.6 µM (inactive)
3 | COC1=C2CC(C)CC(OC)C(O)C(C)/C=C(\C)C(OC(N)=O)C(OC)/C=C\C=C(/C)C(=O)NC(=C(/C=N/C(C)(C)C)C1=O)C2=O (configuration not stated) | 5.7 µM (inactive) | 0.466 µM (active) | 0.479 µM (active) | 1.31 µM (inactive) | 3.73 µM (inactive) | 6.05 µM (inactive) | 13.9 µM (inactive) | 5.38 µM (inactive) | 4.85 µM (inactive) | 2.44 µM (inactive) | 1.68 µM (inactive) | 0.986 µM (active) | 0.279 µM (active) | 0.351 µM (active) | 1.89 µM (inactive) | 4.97 µM (inactive) | 3.57 µM (inactive) | 37.3 µM (inactive)
4 | CCOC(=O)/C=C/c1c(C)[nH]c(=O)[nH]c1=O | > 250 µM (inactive) | 120 µM (inactive) | > 250 µM (inactive) | > 250 µM (inactive) | > 250 µM (inactive) | > 250 µM (inactive) | > 250 µM (inactive) | > 250 µM (inactive) | > 250 µM (inactive) | > 250 µM (inactive) | > 250 µM (inactive) | > 176 µM (inactive) | 102 µM (inactive) | > 237 µM (inactive) | > 250 µM (inactive) | > 250 µM (inactive) | > 250 µM (inactive) | > 94.4 µM (inactive)
5 | C/C(=N\NS(=O)(=O)c1ccccc1)c1ccccc1 | > 100 µM (inactive) | > 100 µM (inactive) | > 100 µM (inactive) | > 100 µM (inactive) | > 100 µM (inactive) | > 100 µM (inactive) | > 100 µM (inactive) | > 100 µM (inactive) | > 100 µM (inactive) | > 100 µM (inactive) | > 100 µM (inactive) | > 100 µM (inactive) | > 100 µM (inactive) | > 100 µM (inactive) | > 100 µM (inactive) | > 100 µM (inactive) |  | > 100 µM (inactive)
6 | C=C(C)C(=O)O[C@H]1CC2=C[C@@H](C[C@@]3(C)O[C@@H]3[C@H]3OC(=O)C(=C)[C@@H]31)OC2=O [ELEPHANTOPIN] | 1.14 µM (inactive) | 4.47 µM (inactive) | 0.486 µM (active) | 0.885 µM (active) | 0.695 µM (active) | 0.897 µM (active) | 2.09 µM (inactive) | 3.5 µM (inactive) | 4.34 µM (inactive) | 4.86 µM (inactive) | 5.11 µM (inactive) | 2.79 µM (inactive) | 0.593 µM (active) | 0.369 µM (active) | 2.12 µM (inactive) | 1.71 µM (inactive) | 5.13 µM (inactive) | 6.55 µM (inactive)
